Reference: patent US12048316B2, “Sweetener and flavor compositions, methods of making and methods of use thereof” (EPC Natural Products Co., Ltd., priority 2018, dated 2024)

Columns and labels:
[1] = HPLC/MS quantitative evaluation: degradation of reaction partners and formation of MRI at various pH-conditions; assay type: physicochemical; settings: pH = 7.0
Method: All samples were analyzed by HPLC/ISIS using following conditions.
Quantitative evaluation was performed using external standardization.

[2] = Assay to test DPPH radical-scavenging activity; assay type: biochemical; settings: combinations of amino acids and Reb-A, 100° C.; less pronounced than glucose or xylose
Method: 1 mg 1,1-Diphenyl-2-picrylhydrazyl radical (DPPH)/ml ethanol, dilution to assay concentration were prepared in ethanol (40 μg/mL); Calibration samples were prepared with Ascorbic acid in a concentration of 0-10 μg/mL, as a negative control sample, water was used.
Samples in aqueous solution were used as such or diluted with water.
A 0.1 ml sample (or calibration standard) was mixed with 3.9 ml solution of DPPH (100 μMolar) and reacted while protected from light at room temperature for 30 min. Absorbance was determined at 517 nm against ethanol.
10 mM of amino acid and/or 10 mM sugar were dissolved in 10 ml 0.1 mM KH2PO4-buffer, pH=7.8
The samples were kept at 100° C. in sealed glass vials (Pyrex 15 ml with screw caps) for 0 (before reaction), 2.5 or 5.0 hours. Thereafter the samples were transferred to an ice water bath and cooled down to room temperature. These samples were diluted 1:10 and used for the test assay for anti-oxidant potential.

[3] = relative to sucrose (sugar, cane sugar); depends on the tested concentration; cited from earlier work

Compound | times sweeter than sucrose / sugar [3] | other results
O=C[C@H](O)[C@@H](O)[C@H](O)[C@H](O)CO [Glu, Glucose] | – | % degradation ([1]; reaction Phe + Gluc): 4.6%
C=C1C[C@@]23CC[C@H]4[C@@](C)(CCC[C@@]4(C)C(=O)O[C@@H]4O[C@H](CO)[C@@H](O)[C@H](O)[C@H]4O)[C@@H]2CC[C@]1(O[C@@H]1O[C@H](CO)[C@@H](O)[C@H](O[C@@H]2O[C@H](CO)[C@@H](O)[C@H](O)[C@H]2O)[C@H]1O[C@@H]1O[C@H](CO)[C@@H](O)[C@H](O)[C@H]1O)C3 [Reb-A, Rebaudioside A] | – | anti-oxidant properties (iron-III reduction, radical scavenging) [2]: substantial anti-oxidant properties
C=C1C[C@@]23CC[C@H]4[C@@](C)(CCC[C@@]4(C)C(=O)O[C@@H]4O[C@H](CO)[C@@H](O)[C@H](O)[C@H]4O)[C@@H]2CC[C@]1(O[C@@H]1O[C@H](CO)[C@@H](O)[C@H](O)[C@H]1O)C3 [Rubusoside] | 200 times | –
O=C[C@H](O)[C@@H](O)[C@H](O)CO [Xyl, xylose] | – | % degradation ([1]; reaction Phe + Xyl): 6.3%
O=S(=O)([O-])NC1CCCCC1.[Na+] [sodium cyclamate] | about 30 times | –
OC[C@H]1O[C@H](O[C@]2(CCl)O[C@H](CCl)[C@@H](O)[C@@H]2O)[C@H](O)[C@@H](O)[C@H]1Cl [sucralose] | about 600 times | –
